Legend:
Hep-3B cells = assay: Cellular assay: erythropoietin secretion in Hep-3B cells; type: cell-based, human; details: Homo sapiens, Hep3B, 100 μM compound, 24 hours, percent of EPO secretion relative to assay control compound 7-[(4-Chloro-phenyl)-(5-methyl-isoxazol-3-ylamino)-methyl]-quinolin-8-ol, read-out: Cellular % EPO Stimulation
Outline: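 Hep-3B cells in DMEM with 10% FBS, treated 24 h after plating with compounds at 100 μM final for a further 24 h. Secreted EPO in supernatant measured by MSD electrochemiluminescence sandwich immunoassay with anti-EPO detection antibody.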

human PHD2 (PHD2181-417) = molecular target: T1, human PHD2 (PHD2181-417) (Homo sapiens, UniProt Q9GZT9); assay: PHD enzymatic assay ([14C]-succinic acid production); type: biochemical; details: PHD2181-417, HIF-1α peptide 10 μM, average of results; read-out: Enzyme pIC50 (converted)
T1 construct: Smt (SUMO) tag (cleaved yes); made in house; host or cells: E. coli BL21 (pBAD vector)
T1 sequence (Q9GZT9 181-417): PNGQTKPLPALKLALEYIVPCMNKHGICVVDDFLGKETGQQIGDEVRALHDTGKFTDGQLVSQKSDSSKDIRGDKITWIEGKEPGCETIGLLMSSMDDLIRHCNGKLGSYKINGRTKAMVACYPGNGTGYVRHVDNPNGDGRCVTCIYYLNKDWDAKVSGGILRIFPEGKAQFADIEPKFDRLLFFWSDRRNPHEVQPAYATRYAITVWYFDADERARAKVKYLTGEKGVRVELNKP
Outline: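 Activity measured as [14C]-succinic acid formed from [5-14C]-2-oxoglutarate over 10 minutes, with peptide substrate at 10 μM, in Tris-HCl pH 7.5 buffer containing catalase, DTT and ascorbate. Unreacted oxoglutarate removed by DNP derivatisation; supernatant beta-counted.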

| SMILES | Emax at 100 µM (Hep-3B cells) | IC50 (human PHD2 (PHD2181-417)) |
| --- | --- | --- |
| O=C(O)c1cnn(-c2nc3c(OC(F)(F)F)cccc3c(=O)[nH]2)c1 [Example 117, 1-(4-Oxo-8-trifluoromethoxy-3,4-dihydro-quinazolin-2-yl)-1H-pyrazole-4-carboxylic acid] | 12% | 794 nM |
| O=C(O)c1cnn(-c2nc3c(F)cccc3c(=O)[nH]2)c1 [Example 118, 1-(8-Fluoro-4-oxo-3,4-dihydro-quinazolin-2-yl)-1H-pyrazole-4-carboxylic acid] | 16% | 79.4 nM |
| CC(C)c1ccc2nc(-n3cc(C(=O)O)cn3)[nH]c(=O)c2c1 [Example 119, 1-(6-Isopropyl-4-oxo-3,4-dihydro-quinazolin-2-yl)-1H-pyrazole-4-carboxylic acid] | 115% | 15.8 nM |
| CCC(C)c1ccc2nc(-n3cc(C(=O)O)cn3)[nH]c(=O)c2c1 (stereo not shown) [Example 120, 1-(6-sec-Butyl-4-oxo-3,4-dihydro-quinazolin-2-yl)-1H-pyrazole-4-carboxylic acid] | 68% | 20 nM |
| CCOc1ccc2nc(-n3cc(C(=O)O)cn3)[nH]c(=O)c2c1 [Example 121, 1-(6-Ethoxy-4-oxo-3,4-dihydro-quinazolin-2-yl)-1H-pyrazole-4-carboxylic acid] | 30% | 10 nM |
| COc1ccc2nc(-n3cc(C(=O)O)cn3)[nH]c(=O)c2c1 [Example 122, 1-(6-Methoxy-4-oxo-3,4-dihydro-quinazolin-2-yl)-1H-pyrazole-4-carboxylic acid] | 16% | 25.1 nM |
| O=C(O)c1cnn(-c2nc3ccc(N4CCCC4)cc3c(=O)[nH]2)c1 [Example 123, 1-(4-Oxo-6-pyrrolidin-1-yl-3,4-dihydro-quinazolin-2-yl)-1H-pyrazole-4-carboxylic acid] | 17% | 39.8 nM |
| O=C(O)c1cnn(-c2nc3ccc(N4CCCCC4)cc3c(=O)[nH]2)c1 [Example 124, 1-(4-Oxo-6-piperidin-1-yl-3,4-dihydro-quinazolin-2-yl)-1H-pyrazole-4-carboxylic acid] | 71% | 39.8 nM |
| CN(C)c1ccc2nc(-n3cc(C(=O)O)cn3)[nH]c(=O)c2c1 [Example 125, 1-(6-Dimethylamino-4-oxo-3,4-dihydro-quinazolin-2-yl)-1H-pyrazole-4-carboxylic acid] | 19% | 50.1 nM |
| O=C(O)c1cnn(-c2nc3ccccc3c(=O)[nH]2)c1 [Example 126, 1-(4-Oxo-3,4-dihydro-quinazolin-2-yl)-1H-pyrazole-4-carboxylic acid] | 9% | 63.1 nM |
| O=C(O)c1cnn(-c2nc3cc(F)c(Br)cc3c(=O)[nH]2)c1 [Example 127, 1-(6-Bromo-7-fluoro-4-oxo-3,4-dihydro-quinazolin-2-yl)-1H-pyrazole-4-carboxylic acid] | 9% | 31.6 nM |
| CCc1ccc2nc(-n3cc(C(=O)O)cn3)[nH]c(=O)c2c1 [Example 128, 1-(6-Ethyl-4-oxo-3,4-dihydro-quinazolin-2-yl)-1H-pyrazole-4-carboxylic acid] | 53% | 39.8 nM |
| CCCc1ccc2nc(-n3cc(C(=O)O)cn3)[nH]c(=O)c2c1 [Example 129, 1-(4-Oxo-6-propyl-3,4-dihydro-quinazolin-2-yl)-1H-pyrazole-4-carboxylic acid] | 94% | 31.6 nM |
| O=C(O)c1cnn(-c2nc3c(F)cc(Br)cc3c(=O)[nH]2)c1 [Example 130, 1-(6-Bromo-8-fluoro-4-oxo-3,4-dihydro-quinazolin-2-yl)-1H-pyrazole-4-carboxylic acid] | 12% | 79.4 nM |
| O=C(O)c1cnn(-c2nc3cc(F)cc(F)c3c(=O)[nH]2)c1 [Example 131, 1-(5,7-Difluoro-4-oxo-3,4-dihydro-quinazolin-2-yl)-1H-pyrazole-4-carboxylic acid] | 21% | 63.1 nM |
| O=C(O)c1cnn(-c2nc3cc(Cl)cc(Cl)c3c(=O)[nH]2)c1 [Example 132, 1-(5,7-Dichloro-4-oxo-3,4-dihydro-quinazolin-2-yl)-1H-pyrazole-4-carboxylic acid] | 16% | 126 nM |
| O=C(O)c1cnn(-c2nc3cc(F)ccc3c(=O)[nH]2)c1 [Example 133, 1-(7-Fluoro-4-oxo-3,4-dihydro-quinazolin-2-yl)-1H-pyrazole-4-carboxylic acid] | 10% | 39.8 nM |
| O=C(O)c1cnn(-c2nc3cc(Br)ccc3c(=O)[nH]2)c1 [Example 134, 1-(7-Bromo-4-oxo-3,4-dihydro-quinazolin-2-yl)-1H-pyrazole-4-carboxylic acid] | 18% | 50.1 nM |

| SMILES | Emax at 100 µM (Hep-3B cells) | IC50 (human PHD2 (PHD2181-417)) |
| --- | --- | --- |
| COc1ccc2c(=O)[nH]c(-n3cc(C(=O)O)cn3)nc2c1 [Example 135, 1-(7-Methoxy-4-oxo-3,4-dihydro-quinazolin-2-yl)-1H-pyrazole-4-carboxylic acid] | 17% | 79.4 nM |
| O=C(O)c1cnn(-c2nc3cc(Cc4ccccc4)ccc3c(=O)[nH]2)c1 [Example 136, 1-(7-Benzyl-4-oxo-3,4-dihydro-quinazolin-2-yl)-1H-pyrazole-4-carboxylic acid] | 23% | 31.6 nM |
| O=C(O)c1cnn(-c2nc3cc4c(cc3c(=O)[nH]2)OCCCO4)c1 [Example 137, 1-(4-Oxo-3,4,8,9-tetrahydro-7H-6,10-dioxa-1,3-diaza-cyclohepta[b]naphthalen-2-yl)-1H-pyrazole-4-carboxylic acid] | 15% | 50.1 nM |
| O=C(O)c1cnn(-c2nc3c4c(ccc3c(=O)[nH]2)OCCO4)c1 [Example 138, 1-(8-Oxo-2,3,7,8-tetrahydro-1,4-dioxa-5,7-diaza-phenanthren-6-yl)-1H-pyrazole-4-carboxylic acid] | 40% | 251 nM |
| O=C(O)c1cnn(-c2nc3cc4c(cc3c(=O)[nH]2)OCCO4)c1 [Example 139, 1-(4-Oxo-3,4,7,8-tetrahydro-[1,4]dioxino[2,3-g]quinazolin-2-yl)-1H-pyrazole-4-carboxylic acid] | 15% | 35.5 nM |
| O=C(O)c1cnn(-c2nc3cc4c(cc3c(=O)[nH]2)CCC4)c1 [Example 140, 1-(4-Oxo-4,6,7,8-tetrahydro-3H-cyclopenta[g]quinazolin-2-yl)-1H-pyrazole-4-carboxylic acid] | 62% | 35.5 nM |
| O=C(O)c1cnn(-c2nc3c4c(ccc3c(=O)[nH]2)CCC4)c1 [Example 141, 1-(6-Oxo-2,3,6,7-tetrahydro-1H-7,9-diaza-cyclopenta[a]naphthalen-8-yl)-1H-pyrazole-4-carboxylic acid] | 25% | 501 nM |
| O=C(O)c1cnn(-c2nc3c4c(ccc3c(=O)[nH]2)CCCC4)c1 [Example 142, 1-(4-Oxo-3,4,7,8,9,10-hexahydro-benzo[h]quinazolin-2-yl)-1H-pyrazole-4-carboxylic acid] | 23% | 251 nM |
| O=C(O)c1cnn(-c2nc3cc4c(cc3c(=O)[nH]2)CCCC4)c1 [Example 143, 1-(4-Oxo-3,4,6,7,8,9-hexahydro-benzo[g]quinazolin-2-yl)-1H-pyrazole-4-carboxylic acid] | 75% | 31.6 nM |
| O=C(O)c1cnn(-c2nc3ccc4c(c3c(=O)[nH]2)CCCC4)c1 [Example 144, 1-(1-Oxo-1,2,7,8,9,10-hexahydro-benzo[f]quinazolin-3-yl)-1H-pyrazole-4-carboxylic acid] | 42% | 39.8 nM |
| Cc1cc(C)c2c(=O)[nH]c(-n3cc(C(=O)O)cn3)nc2c1 [Example 145, 1-(5,7-Dimethyl-4-oxo-3,4-dihydro-quinazolin-2-yl)-1H-pyrazole-4-carboxylic acid] | 16% | 398 nM |
| CC(C)c1ccc2c(=O)[nH]c(-n3cc(C(=O)O)cn3)nc2c1 [Example 146, 1-(7-Isopropyl-4-oxo-3,4-dihydro-quinazolin-2-yl)-1H-pyrazole-4-carboxylic acid] | 16% | 126 nM |
| CC(C)(C)c1ccc2c(=O)[nH]c(-n3cc(C(=O)O)cn3)nc2c1 [Example 147, 1-(7-tert-Butyl-4-oxo-3,4-dihydro-quinazolin-2-yl)-1H-pyrazole-4-carboxylic acid] | 11% | 398 nM |
| O=C(O)c1cnn(-c2nc3cc(OC(F)(F)F)ccc3c(=O)[nH]2)c1 [Example 148, 1-(4-Oxo-7-trifluoromethoxy-3,4-dihydro-quinazolin-2-yl)-1H-pyrazole-4-carboxylic acid] | 10% | 126 nM |
| CC(C)Oc1ccc2c(=O)[nH]c(-n3cc(C(=O)O)cn3)nc2c1 [Example 149, 1-(7-Isopropoxy-4-oxo-3,4-dihydro-quinazolin-2-yl)-1H-pyrazole-4-carboxylic acid] | 9% | 398 nM |
| CN(C)c1ccc2c(=O)[nH]c(-n3cc(C(=O)O)cn3)nc2c1 [Example 150, 1-(7-Dimethylamino-4-oxo-3,4-dihydro-quinazolin-2-yl)-1H-pyrazole-4-carboxylic acid] | 24% | 158 nM |
| CN(C)c1cccc2nc(-n3cc(C(=O)O)cn3)[nH]c(=O)c12 [Example 151, 1-(5-Dimethylamino-4-oxo-3,4-dihydro-quinazolin-2-yl)-1H-pyrazole-4-carboxylic acid] | 11% | 631 nM |
